Measured values reported in patent US20250051277A1, “DELIVERY OF THERAPEUTIC ALKALOID COMPOUNDS” (Sensorium Therapeutics, Inc., priority 2021, published 2025).
Read-outs that look alike come from different tables or passages of the source.

What was measured:
[1] = in vivo; cited from earlier work
[2] = Pharmacokinetics of 043 and 001 in mice after oral 043 (75 mg/kg); assay type: in vivo, male C57BL/6 mice; details: analyte = label, single oral administration of 043, 75 mg/kg, male C57BL/6 mice
Method: Total twelve male mice were used in this study. […] The formulation vehicle used was normal saline.
The plasma and brain concentration-time data of 043 and 001 was used for the pharmacokinetic analysis.
The extraction procedure for plasma/brain samples and the spiked plasma/brain calibration standards were identical:
A 25 μL of study sample plasma/brain (dilution applied to some samples) or spiked plasma calibration standard was added to individual pre-labeled micro-centrifuge tubes followed by 100 μL of internal standard prepared in acetonitrile (Glipizide-500 ng/mL) was added except for blank, where 100 μL of acetonitrile was added. Samples were vortexed for 5 minutes. Samples were centrifuged for 10 minutes at a speed of 4000 rpm at 4° C. Following centrifugation, 100 μL of clear supernatant was transferred in 96 well plates and analyzed using LC-MS/MS.

[3] = Plasma Stability Assay of Example A3, mouse plasma; details: 5 μM, 37° C., % of prodrug compound remaining
[4] = Plasma Stability Assay of Example A4, human plasma; details: 37° C., 10 μM
Method: (§1) 50 μL aliquots of positive controls and test compounds spiked into rat or human plasma (n=2) were added to a pre-warmed plate (37° C.) and shaken at 50 rpm. At each respective time point, the reaction was stopped by adding 500 μL of acetonitrile containing internal standards (100 nM aprozolam, 200 nM caffeine, 100 nM tolbutamide). All samples were vortexed for 10 minutes, followed by centrifugation at 3,220 g for 30 minutes to precipitate proteins. 100 μL of the supernatant is transferred to a new plate. The supernatant will be diluted with ultrapure water according to the LC-MS signal response and peak shape.

[5] = 2 mg/kg iv of labelled compound, rat
Method: Brain samples were homogenized with PBS (W/V, 1:3). Plasma/brain samples were mixed with acetonitrile containing internal standard. The samples were vortexed then centrifuged at 4 degrees Celsius for 15 minutes. The supernatant was diluted with water (1:2 V/V) and analyzed by LC/MS/MS for quantitative analysis. […] Area under the curve (AUC) was calculated and divided by dose to account for molecular weight difference of prodrug and metabolite (AUC/D).

[6] = Plasma Stability Assay of Example A4, rat plasma; details: 37° C., 10 μM
Method: as §1

[7] = Hydrolysis Assay of Example A1 (conversion by LCMS); assay type: physicochemical; details: for Conversion (%) / Notes (hydrolysis): 0.5 mM, 0-24 h
[8] = Plasma Stability Assay of Example A3, human plasma; details: 5 μM, 37° C., % of prodrug compound remaining
[9] = Method: Male C57/BL6 mice were used to evaluate each compound, with n=3 mice/time point.
Animals were administered through intravenous route with solution formulation at 2 mg/kg dose. […] Following blood collection, immediately, animals were sacrificed, and vena-cava was cut open and blood was drained. […] Brain samples were collected from set of three mice at each time point. […] Brain samples were homogenized using 2 volumes of ice-cold PBS (pH-7.4) of brain weight. […] Concentrations of compound (or compound and metabolite) in mouse plasma and brain samples were determined by fit for purpose LC-MS/MS method.

[10] = Oral dose pharmacokinetic study in mice (10 mg/kg); assay type: in vivo, male C57BL/6 mice
Text: The formulation vehicle used was normal saline.

[11] = 2 mg/kg iv of labelled compound, mice
[12] = 10 mg/kg po of labelled compound, mice

**Q.** With (−) mesembrine as the molecule, how does the half-life in plasma [1] read?
**A.** Its half-life in plasma is “less than 2 hours”.

**Q.** For `COc1ccc([C@@]23CCC(=O)C[C@@H]2N(C)CC3)cc1OC` [Compound 001, mesembrine, reference compound], which “Brain concentrations quantifiable up to” value [2] is on record?
**A.** Its value is 4 h.

**Q.** What about the “brain exposure-Kp” value [2] of the same molecule?
**A.** Its value is 2.55.

**Q.** And the AUClast ([2]; brain)?
**A.** The AUClast was 498.04 ng·h/mL.

**Q.** What about the Cmax ([2]; brain) of the same molecule?
**A.** Its Cmax is 602.12 ng/mL.

**Q.** What about the Tmax ([2]; brain) of the same molecule?
**A.** The Tmax was 30 min.

**Q.** What about the AUClast ([2]; plasma) of the same molecule?
**A.** Its AUClast is 195.38 ng·h/mL.

**Q.** And the Cmax ([2]; plasma)?
**A.** Its Cmax is 230.83 ng/mL.

**Q.** What about the Tmax ([2]; plasma) of the same molecule?
**A.** The Tmax was 30 min.

**Q.** And the “Mouse Plasma Prodrug (%)” value ([3]; 0 min)?
**A.** The value was 100.0%.

**Q.** What about the “Mouse Plasma Prodrug (%)” value ([3]; 15 min) of the same molecule?
**A.** Its value is >99%.

**Q.** And the “Mouse Plasma Prodrug (%)” value ([3]; 30 min)?
**A.** Its value is 97.8%.

**Q.** And the “Mouse Plasma Prodrug (%)” value ([3]; 60 min)?
**A.** The value was >99%.

**Q.** And the “Mouse Plasma Prodrug (%)” value ([3]; 120 min)?
**A.** Its value is >99%.

**Q.** And the “Mouse Plasma Prodrug (%)” value ([3]; 240 min)?
**A.** The value was >99%.

**Q.** What about the “Compound 001 (%) (metabolite mesembrine), Human Plasma” value (“Compound 001 (%) … Human Plasma” for short) ([4]; time 0.0 min) of the same molecule?
**A.** Its value is 100.0%.

**Q.** And the “Compound 001 (%) … Human Plasma” value ([4]; time 10 min)?
**A.** The value was >99%.

**Q.** And the “Compound 001 (%) … Human Plasma” value ([4]; time 30 min)?
**A.** The value was >99%.

**Q.** And the “Compound 001 (%) … Human Plasma” value ([4]; time 60 min)?
**A.** Its value is >99%.

**Q.** And the “Compound 001 (%) … Human Plasma” value ([4]; time 120 min)?
**A.** Its value is >99%.

**Q.** And the “Compound 001 (%) … Human Plasma” value ([4]; time 240 min)?
**A.** The value was >99%.

**Q.** What about the “001 brain levels quantifiable up to” value [5] of the same molecule?
**A.** Its value is 2 h.

**Q.** What about the “Compound 001 (%) (metabolite mesembrine), Rat Plasma” value (from here on “Compound 001 (%) … Rat Plasma”) ([6]; time 0.0 min) of the same molecule?
**A.** Its value is 100.0%.

**Q.** What about the “Compound 001 (%) … Rat Plasma” value ([6]; time 10 min) of the same molecule?
**A.** Its value is >99%.

**Q.** What about the “Compound 001 (%) … Rat Plasma” value ([6]; time 30 min) of the same molecule?
**A.** The value was >99%.

**Q.** What about the “Compound 001 (%) … Rat Plasma” value ([6]; time 60 min) of the same molecule?
**A.** Its value is 97.3%.

**Q.** And the “Compound 001 (%) … Rat Plasma” value ([6]; time 120 min)?
**A.** Its value is >99%.

**Q.** What about the “Compound 001 (%) … Rat Plasma” value ([6]; time 240 min) of the same molecule?
**A.** The value was 98.3%.

**Q.** What about the “hydrolysis in the Hydrolysis Assay” value ([7]; pH 2.0 in 0.01 M HCl to pH 7.4 in 20 mM PBS, 25° C. to 40° C.) of the same molecule?
**A.** The value was “did not further hydrolyze”.

**Q.** And the “Conversion (%)” value ([7]; pH = 2.0, 25° C., 0.01M HCl)?
**A.** The value was 0%.

**Q.** What about the “Notes (hydrolysis)” value ([7]; pH = 2.0, 25° C., 0.01M HCl) of the same molecule?
**A.** The value was “Stable”.

**Q.** What about the “Conversion (%)” value ([7]; pH = 2.0, 40° C., 0.01M HCl) of the same molecule?
**A.** The value was 0%.

**Q.** What about the “Notes (hydrolysis)” value ([7]; pH = 2.0, 40° C., 0.01M HCl) of the same molecule?
**A.** The value was “Stable”.

**Q.** What about the “Conversion (%)” value ([7]; pH = 7.4, 25° C., PBS (20 mM)) of the same molecule?
**A.** Its value is 0%.

**Q.** And the “Notes (hydrolysis)” value ([7]; pH = 7.4, 25° C., PBS (20 mM))?
**A.** The value was “Stable”.

**Q.** What about the “Conversion (%)” value ([7]; pH = 7.4, 40° C., PBS (20 mM)) of the same molecule?
**A.** The value was 0%.

**Q.** And the “Notes (hydrolysis)” value ([7]; pH = 7.4, 40° C., PBS (20 mM))?
**A.** The value was “Stable”.

**Q.** What about the “Human Plasma Prodrug (%)” value ([8]; 0 min) of the same molecule?
**A.** Its value is 100.0%.

**Q.** And the “Human Plasma Prodrug (%)” value ([8]; 15 min)?
**A.** Its value is >99%.

**Q.** What about the “Human Plasma Prodrug (%)” value ([8]; 30 min) of the same molecule?
**A.** The value was >99%.

**Q.** What about the “Human Plasma Prodrug (%)” value ([8]; 60 min) of the same molecule?
**A.** The value was >99%.

**Q.** What about the “Human Plasma Prodrug (%)” value ([8]; 120 min) of the same molecule?
**A.** The value was >99%.

**Q.** What about the “Human Plasma Prodrug (%)” value ([8]; 240 min) of the same molecule?
**A.** The value was >99%.

**Q.** And the “quantifiable levels of 001 in brain up to” value [9, 11]?
**A.** The value was 60 min.

**Q.** What about the “quantifiable levels of 001 in plasma up to” value [9, 11] of the same molecule?
**A.** The value was 30 min.

**Q.** And the “Plasma levels of 001” value ([9]; at 60, 120, 180 min, 2 mg/kg iv of 001, mice)?
**A.** Its value is “not detectable”.

**Q.** What about the “Brain levels of 001” value ([9]; at 120, 180 min, 2 mg/kg iv of 001, mice) of the same molecule?
**A.** The value was “not detectable”.

**Q.** And the “001 quantifiable in brain up to” value [10, 12]?
**A.** The value was 60 min.

**Q.** What about the “001 quantifiable in plasma up to” value [10, 12] of the same molecule?
**A.** Its value is 2 h.

**Q.** And the “Brain levels of 001” value ([10]; at 90, 120, 180 min, 10 mg/kg po of 001, mice)?
**A.** Its value is “not detectable”.

**Q.** What about the “Plasma levels of 001” value ([10]; at 180 min, 10 mg/kg po of 001, mice) of the same molecule?
**A.** The value was “not detectable”.

**Q.** And the “bioavailability (% F)” value ([10]; mice, oral 10 mg/kg)?
**A.** The value was < 10%.
